Measured values taken from ChEMBL document CHEMBL4007491, “Structure-based drug design of novel ASK1 inhibitors using an integrated lead optimization strategy” (Bioorg Med Chem Lett, 2017).

What was measured:
[1] = target: T1, Mitogen-activated protein kinase kinase kinase 5 (Homo sapiens, UniProt Q99683); assay: Inhibition of ASK1 (unknown origin) assessed as reduction in JNK phosphorylation by cell based assay
T1 sequence (Q99683 whole entry): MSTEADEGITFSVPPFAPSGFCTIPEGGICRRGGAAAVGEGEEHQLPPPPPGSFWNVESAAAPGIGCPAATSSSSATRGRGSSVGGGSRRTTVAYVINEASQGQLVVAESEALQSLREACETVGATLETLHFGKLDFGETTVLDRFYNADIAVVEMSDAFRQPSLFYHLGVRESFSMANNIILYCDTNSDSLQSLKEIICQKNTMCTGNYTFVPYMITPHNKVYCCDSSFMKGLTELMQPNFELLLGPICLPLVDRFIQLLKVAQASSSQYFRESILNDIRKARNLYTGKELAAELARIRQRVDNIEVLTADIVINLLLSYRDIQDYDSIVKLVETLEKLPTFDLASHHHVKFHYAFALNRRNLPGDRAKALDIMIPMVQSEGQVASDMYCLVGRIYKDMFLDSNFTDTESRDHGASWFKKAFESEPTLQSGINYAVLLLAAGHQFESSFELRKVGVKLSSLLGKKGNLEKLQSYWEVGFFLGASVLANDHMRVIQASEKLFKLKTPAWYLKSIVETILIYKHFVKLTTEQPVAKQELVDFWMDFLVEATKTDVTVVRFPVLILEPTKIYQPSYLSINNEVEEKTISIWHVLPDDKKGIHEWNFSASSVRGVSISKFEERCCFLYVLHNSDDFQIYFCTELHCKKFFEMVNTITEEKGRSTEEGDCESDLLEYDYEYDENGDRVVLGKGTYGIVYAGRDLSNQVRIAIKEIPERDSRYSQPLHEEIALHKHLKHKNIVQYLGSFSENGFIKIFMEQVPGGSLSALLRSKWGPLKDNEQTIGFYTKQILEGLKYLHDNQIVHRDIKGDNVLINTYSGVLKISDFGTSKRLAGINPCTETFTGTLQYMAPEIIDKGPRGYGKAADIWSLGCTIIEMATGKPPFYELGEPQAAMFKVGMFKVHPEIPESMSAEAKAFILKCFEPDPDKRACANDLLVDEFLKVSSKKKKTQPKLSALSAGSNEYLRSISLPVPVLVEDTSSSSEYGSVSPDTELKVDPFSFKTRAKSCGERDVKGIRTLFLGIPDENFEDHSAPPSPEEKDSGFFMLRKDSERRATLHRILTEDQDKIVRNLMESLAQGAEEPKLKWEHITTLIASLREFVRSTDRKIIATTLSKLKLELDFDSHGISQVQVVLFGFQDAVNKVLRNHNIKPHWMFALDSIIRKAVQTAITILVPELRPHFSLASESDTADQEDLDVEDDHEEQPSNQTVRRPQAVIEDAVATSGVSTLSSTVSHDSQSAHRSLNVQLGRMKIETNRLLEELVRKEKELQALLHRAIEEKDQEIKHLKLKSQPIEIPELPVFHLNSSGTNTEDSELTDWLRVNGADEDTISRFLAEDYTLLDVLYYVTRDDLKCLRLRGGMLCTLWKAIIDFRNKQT

[2] = target: T1, Mitogen-activated protein kinase kinase kinase 5; assay: Inhibition of ASK1 (unknown origin) using biotin-MBP as substrate after 20 mins by TR-FRET assay
[3] = target: T2, Mitogen-activated protein kinase kinase kinase 5 (Homo sapiens) (UniProt Q99683); assay: Inhibition of ASK1 (unknown origin) at 500 uM using biotin-MBP as substrate after 20 mins by TR-FRET assay relative to control
T2 sequence (whole entry): T1 sequence (Q99683 whole entry)

[4] = target: 5'-AMP-activated protein kinase catalytic subunit alpha-1 (Homo sapiens, UniProt Q13131); assay: Inhibition of PRKAA1 (unknown origin)
[5] = target: Rho-associated protein kinase 1 (Homo sapiens, UniProt Q13464); assay: Inhibition of recombinant human GST-tagged ROCK1 catalytic domain expressed in baculovirus expression system
[6] = target: Epidermal growth factor receptor (Homo sapiens, UniProt P00533); assay: Inhibition of recombinant human GST-tagged EGFR cytoplasmic domain (668 to 1210 residues) expressed in baculovirus expression system
[7] = target: T3, Ephrin type-A receptor 3 (Homo sapiens, UniProt P29320); assay: Inhibition of recombinant human His-tagged EPHA3 cytoplasmic domain (569 to 976 residues) expressed in baculovirus expression system
T3 sequence (P29320 whole entry): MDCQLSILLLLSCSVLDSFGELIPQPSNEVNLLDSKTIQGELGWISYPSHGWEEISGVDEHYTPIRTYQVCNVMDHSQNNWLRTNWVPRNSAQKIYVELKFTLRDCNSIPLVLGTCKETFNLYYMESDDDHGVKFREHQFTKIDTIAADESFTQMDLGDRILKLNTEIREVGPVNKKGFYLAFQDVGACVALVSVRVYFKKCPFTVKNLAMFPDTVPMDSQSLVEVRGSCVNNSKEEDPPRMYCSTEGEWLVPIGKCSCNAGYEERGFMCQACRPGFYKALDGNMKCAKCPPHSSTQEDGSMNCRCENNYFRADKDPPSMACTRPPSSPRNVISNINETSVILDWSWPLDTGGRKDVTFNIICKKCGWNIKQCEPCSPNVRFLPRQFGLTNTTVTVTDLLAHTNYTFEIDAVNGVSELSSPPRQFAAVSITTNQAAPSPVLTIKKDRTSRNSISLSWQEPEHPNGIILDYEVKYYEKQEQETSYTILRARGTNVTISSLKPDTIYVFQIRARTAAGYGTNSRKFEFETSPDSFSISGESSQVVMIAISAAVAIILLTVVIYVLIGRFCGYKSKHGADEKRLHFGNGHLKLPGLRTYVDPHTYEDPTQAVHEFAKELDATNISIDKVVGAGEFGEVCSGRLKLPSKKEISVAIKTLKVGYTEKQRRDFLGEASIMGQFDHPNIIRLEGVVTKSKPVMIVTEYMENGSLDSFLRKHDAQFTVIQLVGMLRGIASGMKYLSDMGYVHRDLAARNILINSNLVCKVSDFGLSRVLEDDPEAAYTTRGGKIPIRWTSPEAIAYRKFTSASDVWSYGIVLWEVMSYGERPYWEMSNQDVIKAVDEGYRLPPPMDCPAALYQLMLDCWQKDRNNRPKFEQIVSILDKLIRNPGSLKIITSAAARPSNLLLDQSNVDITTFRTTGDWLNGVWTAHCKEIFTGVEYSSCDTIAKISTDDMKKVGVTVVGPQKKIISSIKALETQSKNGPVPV

[8] = target: Cyclin-dependent kinase 2 (Homo sapiens, UniProt P24941); assay: Inhibition of CDK2 (unknown origin)
[9] = target: Macrophage-stimulating protein receptor (Homo sapiens, UniProt Q04912); assay: Inhibition of recombinant human GST-tagged RON cytoplasmic domain expressed in baculovirus expression system
[10] = target: T4, Tyrosine-protein kinase ITK/TSK (Homo sapiens, UniProt Q08881); assay: Inhibition of recombinant full length human GST-tagged ITK expressed in baculovirus expression system
T4 sequence (Q08881 whole entry): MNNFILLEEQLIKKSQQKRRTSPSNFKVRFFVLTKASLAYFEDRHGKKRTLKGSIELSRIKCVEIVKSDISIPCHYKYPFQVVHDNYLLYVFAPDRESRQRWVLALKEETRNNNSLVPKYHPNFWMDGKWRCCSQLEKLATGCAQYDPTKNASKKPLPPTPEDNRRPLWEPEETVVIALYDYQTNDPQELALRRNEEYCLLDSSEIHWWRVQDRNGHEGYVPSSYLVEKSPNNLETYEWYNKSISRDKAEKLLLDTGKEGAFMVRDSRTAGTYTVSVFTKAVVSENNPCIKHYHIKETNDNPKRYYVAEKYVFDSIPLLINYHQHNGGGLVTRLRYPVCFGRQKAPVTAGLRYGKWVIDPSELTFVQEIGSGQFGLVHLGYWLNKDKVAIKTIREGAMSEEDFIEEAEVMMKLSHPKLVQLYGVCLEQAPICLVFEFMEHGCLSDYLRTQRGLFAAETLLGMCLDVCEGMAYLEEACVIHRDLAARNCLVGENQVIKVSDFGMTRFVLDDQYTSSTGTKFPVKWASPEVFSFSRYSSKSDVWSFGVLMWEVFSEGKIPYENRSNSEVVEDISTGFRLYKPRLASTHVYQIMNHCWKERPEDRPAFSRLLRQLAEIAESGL

[11] = target: Glycogen synthase kinase-3 beta (Homo sapiens, UniProt P49841); assay: Inhibition of recombinant full length human His-tagged GSK3B expressed in baculovirus expression system
[12] = target: Proto-oncogene tyrosine-protein kinase receptor Ret (Homo sapiens, UniProt P07949); assay: Inhibition of recombinant human GST-tagged RET cytoplasmic domain expressed in baculovirus expression system
[13] = target: Receptor tyrosine-protein kinase erbB-4 (Homo sapiens, UniProt Q15303); assay: Inhibition of recombinant human N-terminal GST-tagged ERBB4 cytoplasmic domain (708 to 993 residues) expressed in baculovirus expression system
[14] = target: MAP kinase p38 (Homo sapiens, UniProt O15264+Q15759+Q16539+P53778); assay: Inhibition of MAPK p38 (unknown origin)
[15] = target: T5, Tyrosine-protein kinase Mer (Homo sapiens, UniProt Q12866); assay: Inhibition of recombinant human GST-tagged MER cytoplasmic domain expressed in baculovirus expression system
T5 sequence (Q12866 whole entry): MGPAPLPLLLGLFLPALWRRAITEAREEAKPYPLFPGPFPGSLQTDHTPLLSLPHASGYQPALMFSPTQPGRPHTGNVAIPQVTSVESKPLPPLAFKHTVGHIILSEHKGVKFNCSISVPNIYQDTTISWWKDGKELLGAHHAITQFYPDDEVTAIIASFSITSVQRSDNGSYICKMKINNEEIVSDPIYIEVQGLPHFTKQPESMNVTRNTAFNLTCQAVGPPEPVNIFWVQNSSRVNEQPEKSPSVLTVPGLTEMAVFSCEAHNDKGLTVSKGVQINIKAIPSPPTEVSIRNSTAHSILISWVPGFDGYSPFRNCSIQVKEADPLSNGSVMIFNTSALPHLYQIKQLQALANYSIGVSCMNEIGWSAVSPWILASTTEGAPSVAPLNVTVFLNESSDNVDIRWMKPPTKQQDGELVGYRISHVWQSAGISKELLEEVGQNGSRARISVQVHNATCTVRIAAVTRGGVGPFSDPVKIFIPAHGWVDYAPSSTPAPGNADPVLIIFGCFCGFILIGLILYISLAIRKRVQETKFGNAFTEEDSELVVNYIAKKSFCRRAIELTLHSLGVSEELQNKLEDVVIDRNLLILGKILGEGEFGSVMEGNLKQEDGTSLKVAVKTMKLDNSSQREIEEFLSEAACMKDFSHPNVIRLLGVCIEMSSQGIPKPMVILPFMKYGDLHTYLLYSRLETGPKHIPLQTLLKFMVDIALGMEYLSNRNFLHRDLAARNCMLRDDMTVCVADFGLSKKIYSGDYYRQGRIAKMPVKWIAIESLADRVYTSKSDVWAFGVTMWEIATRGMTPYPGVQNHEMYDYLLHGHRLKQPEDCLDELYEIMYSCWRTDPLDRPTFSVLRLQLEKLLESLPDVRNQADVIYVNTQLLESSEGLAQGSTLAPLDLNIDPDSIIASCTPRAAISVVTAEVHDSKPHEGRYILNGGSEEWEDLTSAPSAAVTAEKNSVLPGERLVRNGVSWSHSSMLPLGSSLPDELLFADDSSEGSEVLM

Proto-oncogene tyrosine-protein kinase receptor Ret, sequence (P07949 whole entry, the tested form may be a part): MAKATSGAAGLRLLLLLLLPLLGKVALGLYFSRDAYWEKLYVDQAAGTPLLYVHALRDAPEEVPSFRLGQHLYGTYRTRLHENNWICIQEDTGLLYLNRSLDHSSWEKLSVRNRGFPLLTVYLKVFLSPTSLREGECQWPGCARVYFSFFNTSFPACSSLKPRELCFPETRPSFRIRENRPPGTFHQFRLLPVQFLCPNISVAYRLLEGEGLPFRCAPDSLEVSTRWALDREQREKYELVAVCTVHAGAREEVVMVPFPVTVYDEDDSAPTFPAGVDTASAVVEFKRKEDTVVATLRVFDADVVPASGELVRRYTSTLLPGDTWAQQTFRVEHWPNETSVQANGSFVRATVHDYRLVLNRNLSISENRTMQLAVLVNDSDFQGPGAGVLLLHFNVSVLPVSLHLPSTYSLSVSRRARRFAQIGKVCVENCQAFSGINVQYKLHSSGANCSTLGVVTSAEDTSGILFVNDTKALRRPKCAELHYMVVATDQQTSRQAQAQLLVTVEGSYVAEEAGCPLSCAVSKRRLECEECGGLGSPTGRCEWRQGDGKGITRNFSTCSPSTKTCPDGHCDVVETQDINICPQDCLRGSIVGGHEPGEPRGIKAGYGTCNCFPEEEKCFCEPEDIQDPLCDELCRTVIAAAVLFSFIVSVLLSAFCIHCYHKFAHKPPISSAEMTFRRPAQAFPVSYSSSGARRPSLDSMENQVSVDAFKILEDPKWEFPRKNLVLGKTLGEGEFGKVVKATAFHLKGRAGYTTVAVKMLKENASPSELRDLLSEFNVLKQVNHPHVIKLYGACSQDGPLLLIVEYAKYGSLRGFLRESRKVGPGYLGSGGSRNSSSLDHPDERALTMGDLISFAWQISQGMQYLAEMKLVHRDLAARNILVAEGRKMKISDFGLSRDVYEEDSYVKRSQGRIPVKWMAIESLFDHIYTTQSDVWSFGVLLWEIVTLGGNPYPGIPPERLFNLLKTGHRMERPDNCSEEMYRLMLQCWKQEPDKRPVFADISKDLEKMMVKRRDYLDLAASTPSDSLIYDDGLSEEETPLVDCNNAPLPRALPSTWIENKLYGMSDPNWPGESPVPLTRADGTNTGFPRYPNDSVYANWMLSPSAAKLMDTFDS
Receptor tyrosine-protein kinase erbB-4, sequence (Q15303 whole entry, the tested form may be a part): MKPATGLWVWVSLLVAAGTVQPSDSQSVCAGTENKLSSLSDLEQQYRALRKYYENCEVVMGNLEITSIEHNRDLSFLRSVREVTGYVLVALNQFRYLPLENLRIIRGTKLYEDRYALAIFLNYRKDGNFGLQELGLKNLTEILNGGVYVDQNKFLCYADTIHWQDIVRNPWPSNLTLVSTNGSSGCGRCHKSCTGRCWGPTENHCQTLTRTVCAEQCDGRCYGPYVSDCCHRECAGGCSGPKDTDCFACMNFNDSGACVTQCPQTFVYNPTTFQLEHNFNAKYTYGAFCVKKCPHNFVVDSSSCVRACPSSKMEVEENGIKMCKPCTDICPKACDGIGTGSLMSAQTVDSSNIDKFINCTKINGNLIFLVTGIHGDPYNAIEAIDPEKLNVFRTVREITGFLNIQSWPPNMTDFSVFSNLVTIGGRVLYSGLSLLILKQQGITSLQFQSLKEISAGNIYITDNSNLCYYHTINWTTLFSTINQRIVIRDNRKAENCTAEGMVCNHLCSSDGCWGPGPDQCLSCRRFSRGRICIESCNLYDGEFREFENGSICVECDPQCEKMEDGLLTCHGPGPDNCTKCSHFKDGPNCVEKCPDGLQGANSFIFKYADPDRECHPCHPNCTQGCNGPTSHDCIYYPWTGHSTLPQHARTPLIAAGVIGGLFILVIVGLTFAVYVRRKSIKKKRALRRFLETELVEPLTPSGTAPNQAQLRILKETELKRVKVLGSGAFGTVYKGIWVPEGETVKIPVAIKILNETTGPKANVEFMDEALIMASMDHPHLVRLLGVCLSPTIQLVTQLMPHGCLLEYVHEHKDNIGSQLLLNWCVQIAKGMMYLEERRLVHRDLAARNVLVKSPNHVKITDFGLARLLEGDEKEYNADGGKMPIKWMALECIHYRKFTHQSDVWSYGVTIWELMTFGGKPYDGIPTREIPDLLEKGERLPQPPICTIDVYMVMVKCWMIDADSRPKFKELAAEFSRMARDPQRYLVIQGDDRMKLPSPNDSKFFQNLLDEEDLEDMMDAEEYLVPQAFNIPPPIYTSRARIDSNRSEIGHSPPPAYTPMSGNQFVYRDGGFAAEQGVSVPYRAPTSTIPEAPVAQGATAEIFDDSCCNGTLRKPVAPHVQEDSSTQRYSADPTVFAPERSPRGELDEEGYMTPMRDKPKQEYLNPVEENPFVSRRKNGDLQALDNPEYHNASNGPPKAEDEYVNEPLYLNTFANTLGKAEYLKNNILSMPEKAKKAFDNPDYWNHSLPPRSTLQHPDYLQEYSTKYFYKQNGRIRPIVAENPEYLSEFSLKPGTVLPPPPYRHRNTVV
Rho-associated protein kinase 1, sequence (Q13464 whole entry, the tested form may be a part): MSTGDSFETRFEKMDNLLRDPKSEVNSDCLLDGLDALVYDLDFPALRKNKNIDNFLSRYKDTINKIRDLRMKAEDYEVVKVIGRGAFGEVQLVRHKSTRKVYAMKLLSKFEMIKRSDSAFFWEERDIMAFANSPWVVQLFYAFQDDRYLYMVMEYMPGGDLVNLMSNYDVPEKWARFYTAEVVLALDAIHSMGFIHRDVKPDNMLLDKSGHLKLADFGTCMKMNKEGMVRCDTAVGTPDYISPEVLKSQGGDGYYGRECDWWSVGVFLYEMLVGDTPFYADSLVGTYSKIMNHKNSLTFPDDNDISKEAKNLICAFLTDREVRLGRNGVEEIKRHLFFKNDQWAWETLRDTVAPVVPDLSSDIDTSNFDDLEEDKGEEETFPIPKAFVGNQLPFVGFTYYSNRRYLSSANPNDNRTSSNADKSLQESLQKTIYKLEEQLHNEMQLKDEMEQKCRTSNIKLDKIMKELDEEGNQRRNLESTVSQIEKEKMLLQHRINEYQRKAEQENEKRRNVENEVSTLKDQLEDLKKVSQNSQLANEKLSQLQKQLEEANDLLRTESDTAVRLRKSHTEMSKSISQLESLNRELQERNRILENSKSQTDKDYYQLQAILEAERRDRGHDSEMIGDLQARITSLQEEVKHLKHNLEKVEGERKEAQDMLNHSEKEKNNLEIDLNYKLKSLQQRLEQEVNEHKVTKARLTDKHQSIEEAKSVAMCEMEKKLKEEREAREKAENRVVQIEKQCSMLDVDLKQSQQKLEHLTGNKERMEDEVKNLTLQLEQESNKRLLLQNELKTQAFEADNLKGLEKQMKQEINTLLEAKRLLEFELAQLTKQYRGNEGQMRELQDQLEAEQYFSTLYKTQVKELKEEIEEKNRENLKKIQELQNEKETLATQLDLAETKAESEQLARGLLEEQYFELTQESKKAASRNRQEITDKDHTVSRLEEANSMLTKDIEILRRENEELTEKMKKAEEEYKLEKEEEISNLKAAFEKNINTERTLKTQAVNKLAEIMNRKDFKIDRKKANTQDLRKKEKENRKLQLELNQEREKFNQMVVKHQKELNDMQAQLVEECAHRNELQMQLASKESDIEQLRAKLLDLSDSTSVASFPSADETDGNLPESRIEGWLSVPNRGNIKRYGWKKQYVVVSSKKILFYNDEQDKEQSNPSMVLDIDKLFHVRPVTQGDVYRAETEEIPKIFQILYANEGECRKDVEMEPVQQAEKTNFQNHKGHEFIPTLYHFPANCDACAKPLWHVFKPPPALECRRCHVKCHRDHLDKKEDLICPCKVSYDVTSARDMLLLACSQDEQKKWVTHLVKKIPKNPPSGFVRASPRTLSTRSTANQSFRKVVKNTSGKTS
Epidermal growth factor receptor, sequence (P00533 whole entry, the tested form may be a part): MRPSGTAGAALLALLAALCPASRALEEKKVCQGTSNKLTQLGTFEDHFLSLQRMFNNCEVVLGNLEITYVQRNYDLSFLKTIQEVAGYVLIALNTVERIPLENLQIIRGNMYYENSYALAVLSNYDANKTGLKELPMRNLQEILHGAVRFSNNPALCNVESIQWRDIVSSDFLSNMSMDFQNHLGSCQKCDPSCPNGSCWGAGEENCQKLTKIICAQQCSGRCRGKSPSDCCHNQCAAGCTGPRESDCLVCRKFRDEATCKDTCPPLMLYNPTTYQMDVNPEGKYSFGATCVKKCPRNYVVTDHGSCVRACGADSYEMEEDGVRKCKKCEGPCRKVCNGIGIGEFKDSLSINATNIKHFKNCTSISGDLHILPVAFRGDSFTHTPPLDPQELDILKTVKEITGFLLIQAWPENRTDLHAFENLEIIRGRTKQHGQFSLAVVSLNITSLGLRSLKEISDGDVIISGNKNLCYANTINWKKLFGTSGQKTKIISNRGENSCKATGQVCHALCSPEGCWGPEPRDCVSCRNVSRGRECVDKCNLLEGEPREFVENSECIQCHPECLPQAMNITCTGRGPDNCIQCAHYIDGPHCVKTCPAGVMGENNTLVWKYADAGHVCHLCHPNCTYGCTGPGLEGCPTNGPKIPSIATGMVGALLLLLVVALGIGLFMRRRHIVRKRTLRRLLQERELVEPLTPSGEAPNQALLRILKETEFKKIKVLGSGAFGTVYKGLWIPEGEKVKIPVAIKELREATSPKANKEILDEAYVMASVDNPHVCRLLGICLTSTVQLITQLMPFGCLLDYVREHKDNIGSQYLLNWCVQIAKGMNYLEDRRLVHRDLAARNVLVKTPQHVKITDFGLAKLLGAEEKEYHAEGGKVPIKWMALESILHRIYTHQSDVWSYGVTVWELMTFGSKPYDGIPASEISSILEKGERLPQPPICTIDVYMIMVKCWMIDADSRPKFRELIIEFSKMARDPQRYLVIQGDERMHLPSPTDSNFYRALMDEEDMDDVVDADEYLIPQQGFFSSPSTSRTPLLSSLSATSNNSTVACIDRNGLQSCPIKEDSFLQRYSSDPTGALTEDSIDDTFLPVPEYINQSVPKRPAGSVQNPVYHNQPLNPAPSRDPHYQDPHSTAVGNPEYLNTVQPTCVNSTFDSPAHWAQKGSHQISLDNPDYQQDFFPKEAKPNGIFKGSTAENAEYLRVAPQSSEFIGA

EC50 [1] [nM]	IC50 [2] [nM]	inhibition [3] [%]	Structure (SMILES)	other results
600	600		CCn1cc(NC(=O)c2csc(-c3nncn3C(C)C)n2)cn1	
		40	CCn1cnc(NC(=O)c2ccccc2)c1	
		35	CCn1cnc(NC(=O)c2ccco2)c1	
	500000	51	CCn1cnc(NC(=O)c2ccoc2)c1	
		< 10	CCn1cnc(NC(=O)C2CCC2)c1	
	6000		Cc1cc(F)c(C(=O)Nc2ccccn2)cc1-n1cnc(C2CC2)c1	
	100000	75	CCn1cnc(NC(=O)c2cscn2)c1	
130			CC(C)n1cnnc1-c1nc(C(=O)Nc2cnn(C3COC3)c2)cs1	

Further lines, the molecule ahead of its results:

Structure (SMILES)	EC50 [1] [nM]	IC50 [2] [nM]	inhibition [3] [%]	other results
COCCOc1ccnc(NC(=O)c2csc(-c3nncn3C(C)C)n2)c1	140			
COCCCn1cc(NC(=O)c2csc(-c3nncn3C(C)C)n2)cn1	65			
CC(C)(C)c1ccc(C(=O)Nc2cn3cc(-n4ccnc4)ccc3n2)cc1				IC50 [4]: 13800 nM; IC50 [5]: 4900 nM; IC50 [6]: > 20000 nM; IC50 [7]: > 20000 nM; IC50 [8]: 155 nM; IC50 [9]: > 20000 nM; IC50 [10]: 5500 nM; IC50 [11]: 832 nM; IC50 [12]: 11500 nM; IC50 [13]: > 20000 nM; pIC50 [14]: < 4.7; IC50 [15]: 6460 nM
COCCNc1ccnc(NC(=O)c2csc(-c3nncn3C(C)C)n2)c1	99			
Cc1ccc(C(=O)Nc2cccc(-c3nncn3C(C)C)n2)c(F)c1		55		
CC(C)n1cnnc1-c1nc(C(=O)Nc2ccccn2)cs1		400		
